In patent US5688771A, “Lipophilic oligopeptides with immunomodulating activity” (priority 1993, dated 1997):
Entries after “also recorded” stand apart in the source; their conditions may differ.

Experiments:
[1] = system: IgM antibody against SRBC antigen; test: Enzyme immunoassay of IgM antibody in blood of SRBC-immunized mice; format: in vivo
Method: Outbred CD1 mice were immunized with 0.1% volume for volume sheep red blood cell antigen suspended in saline. The mice were injected intraperitoneally with 0.5 ml, suspension of approximately 2×10^7 cells.
The mice were injected shortly thereafter with a suspension of an immunomodulator of the invention. The immunomodulator dose was a 0.23 ml of a 1 mg/ml suspension in phosphate buffered saline. The injected dose was 10 mg/kg. The second injection was also intraperitoneal.
The mice were killed five days after injections. Blood samples were taken for analysis of immunoglobulin. The determination was made by enzyme immunoassay using an anti μ-horseradish peroxidase conjugate. The spleen was removed, transferred to a petri dish containing 2 ml of Hank's balanced salt solution and 10 mMolar Hepes buffer (HBSS-HEPES). The spleen was gently crushed by the use of forceps, and the cell suspension was filtered through cotton gauze to eliminate cellular debris. The filtered suspension was brought to volume (5 ml) by the addition of HBSS-HEPES, the cells counted, and the suspension diluted to a final concentration of 5×10^6 cells/ml.

[2] = system: antibody producing cells (SRBC antigen); test: Plaque forming assay (PFC) in spleen cells of SRBC-immunized mice; format: in vivo; conditions: for Plaque Assay, PFC relative to control (100%) / Plaque Assay, PFC per 10^6 spleen cells: mice, 10 mg/kg i.p.; for Plaque Assay, PFC per 10^6 spleen cells: five days after injections; for Immunomodulating activity (in words): plaque-forming assay, Table 1
[3] = system: Total T and B cells in splenocytes; test: Splenic T and B cell enumeration by FACS; format: in vivo, C57BL/6 mice; conditions: for % Cells/Spleen ± SD, B Cells / % Cells/Spleen ± SD, T Cells: 50 mg/kg/day i.p. every other day for 4 injections, n = 5; for % Cells/Spleen ± SD, B Cells: anti-Ly5; for % Cells/Spleen ± SD, T Cells: anti-Thy 1.2; for Effect on B cell counts (in words) / Effect on T cell counts (in words): 50 mg/kg, splenocytes, Hydrochloride
Excerpt: Splenic cells were enumerated with the following assay. Dispersed splenocytes were reacted with fluorescein isothiocyanate-labelled murine monoclonal antibody anti-Ly5 for B cell enumeration and phycoerythrin-labelled monoclonal antibody anti-Thy 1.2 for T cell counts. The labelled cells were then enumerated with a fluorescence-activated cell sorter (FACS) (EPICS-C, Coulter Corp., Hialeah, Fla.).

YAC-1 tumor cells = test: Natural killer cell activity, 4 hr chromium release assay; conditions: for % Chromium Release ± SD, Effector:Target Ratio 25:1 / % Chromium Release ± SD, Effector:Target Ratio 50:1: 50 mg/kg/day i.p. every other day for 4 injections, splenocytes 24 hr after final treatment, n = 5
Method: (§1) Mice were administered a 50 mg/kg dose of the immunomodulators of the invention and were subsequently sacrificed. The spleens were harvested and splenocytes isolated. Immunologic assays were conducted on those splenocytes that were taken 24 hours after final treatment. These cells were subjected to tests to determine macrophage and natural killer (NK) cell function.
Three week-old C57 BL/6 mice were procured and quarantined for 24 to 48 hours prior to treatment. The five oligopeptides described in tables 2, 3 and 4 were admixed with a 0.4% water solution of carboxymethylcellulose. The solutions were stored at 4° C. until use. Ribavarin (1-β-D-ribofuranosyl-1,2,4-triazole-carboxamide) was used in each subsequent experiment as a control.
(§2) Animals were treated with a 50 mg/kg/day dosage of one of the tested compound and were killed 24 hr after the final treatment and their spleens removed. […] Red blood cells were removed by haemolytic lysis.
Natural killer (NK) activity of murine cells was determined by testing splenic cells for their ability to lyse YAC-1 tumor cells in a conventional 4 hr chromium release assay as an indicator of NK was expressed as: % chromium release=(experimental counts per minute (cpm)-background cpm)/(maximum cpm-background cpm)

[4] = system: Macrophage function (IL-1 activity in splenocytes); test: Macrophage function, IL-1 activity in splenocytes by [3H]thymidine uptake in PHA-stimulated thymocytes; conditions: for Mean CPM of Treated Thymocytes ± SD: 50 mg/kg/day i.p. every other day for 4 injections, splenocytes 24 hr after final treatment, n = 5; for Effect on macrophage function (in words): 50 mg/kg, splenocytes 24 hours after final treatment, Hydrochloride
Method: as §1
Ribavarin (1-β-D-ribofuranosyl-1,2,4-triazole-carboxamide) was used in each subsequent experiment as a control.
as §2
Macrophage function was assessed by an interleukin-1 (IL-1) assay that utilizes responsiveness of mouse thymocytes to phytohemagglutin (PHA) which is dependent on IL-1 for its reactivity.
The cells were incubated 72 hr at 37° C. During the last 4 hr of the incubation, the cells were pulsed with [^3 H] thymidine (1 μCi/well). The cells were then harvested and [H^3 ] thymidine incorporation was determined using a direct counter.

[5] = system: murinecytomegalovirus (MCMV) (Smith strain); test: Mortality in MCMV-infected mice; format: in vivo, Swiss Webster female mice; conditions: MCMV-infected mice
[6] = Toxicity controls: mortality and weight gain in uninfected mice; format: in vivo; conditions: mouse, in vivo, 25 mg/kg
Method: Groups of 5 uninfected mice were treated the same way and at the same times as described above. These animal were checked daily for survival. Their weigths were taken before the first treatment and 24 hours after the last treatment to determine drug effect on weight gain.

[7] = system: murinecytomegalovirus (MCMV) (Smith strain); test: MCMV titers in tissues; format: in vivo, Swiss Webster female mice; conditions: 25 mg/kg
[8] = 25 mg/kg i.p. once daily for 5 days from 24 hours after virus, 21 days

CCCCCCCCCCCCCCCCCCNC(=O)CC[C@@H](NC(=O)[C@H](C)N)C(N)=O.Cl [BCH-1316, L-Alanyl D-Isoglutamyl Octadecylamine Hydrochloride]
Enzyme Immunoassay, IgM antibody relative to control (100%) ([1]; Experiment 8, 10 mg/kg i.p.): 186%
Plaque Assay, PFC relative to control (100%) ([2]; Experiment 8): 153%
Plaque Assay, PFC per 10^6 spleen cells ([2]; Experiment 8): 759 ± 252 PFC per 10^6 spleen cells
Immunomodulating activity (in words) [2]: immunostimulants

CCCCCCCCCCCCCCCCCCOC(=O)[C@@H](CCC(=O)O)NC(=O)[C@H](C)N.Cl [BCH-526, α-Octadecyl L-Alanyl D-Glutamate Hydrochloride]
% Cells/Spleen ± SD, B Cells [3]: 43 ± 1.4%
% Cells/Spleen ± SD, T Cells [3]: 40 ± 2.4%
Effect on B cell counts (in words) [3]: increase % B cells; also recorded: increased B cell counts
Effect on T cell counts (in words) [3]: suppressing T cells; also recorded: suppressed T cell counts
Enzyme Immunoassay, IgM antibody relative to control (100%) ([1]; Experiment 5, 10 mg/kg i.p.): 82%
Plaque Assay, PFC relative to control (100%) ([2]; Experiment 5): 77%
Plaque Assay, PFC per 10^6 spleen cells ([2]; Experiment 5): 325 ± 300 PFC per 10^6 spleen cells
Immunomodulating activity (in words) [2]: immunosuppressors
% Chromium Release ± SD, Effector:Target Ratio 25:1 (YAC-1 tumor cells): 12.8 ± 2.1%
% Chromium Release ± SD, Effector:Target Ratio 50:1 (YAC-1 tumor cells): 17.2 ± 3.3%
Mean CPM of Treated Thymocytes ± SD [4]: 3413 ± 206 CPM
Effect on macrophage function (in words) [4]: moderately inhibitory; also recorded: moderate macrophage suppression

CCCCCCCCCCCCCCCCCCN[C@H](C(=O)N[C@H](CCC(N)=O)C(=O)O)C(C)C.Cl [BCH 1317, Octadecyl L-Valyl D-Glutamine Hydrochloride]
Enzyme Immunoassay, IgM antibody relative to control (100%) ([1]; Experiment 9, 10 mg/kg i.p.): 189%
Plaque Assay, PFC relative to control (100%) ([2]; Experiment 9): 149%
Plaque Assay, PFC per 10^6 spleen cells ([2]; Experiment 9): 750 ± 191 PFC per 10^6 spleen cells

Octadecyl L-Alanyl D-Isoglutamyl γ-Glycine Hydrochloride [BCH-1315]
Enzyme Immunoassay, IgM antibody relative to control (100%) ([1]; Experiment 8, 10 mg/kg i.p.): 202%
Plaque Assay, PFC relative to control (100%) ([2]; Experiment 8): 204%
Plaque Assay, PFC per 10^6 spleen cells ([2]; Experiment 8): 1012 ± 207 PFC per 10^6 spleen cells
Immunomodulating activity (in words) [2]: immunostimulants

CCCCCCCCCCCCCCCCCCOC(=O)CC[C@@H](NC(=O)[C@H](C)N)C(=O)O.Cl [BCH-524, γ-Octadecyl L-Alanyl D-Glutamate Hydrochloride]
% Cells/Spleen ± SD, B Cells [3]: 33 ± 10.2%
% Cells/Spleen ± SD, T Cells [3]: 35 ± 9.6%
Effect on B cell counts (in words) [3]: suppressive; also recorded: suppressed
Effect on T cell counts (in words) [3]: suppressive; also recorded: suppressed
Enzyme Immunoassay, IgM antibody relative to control (100%) ([1]; Experiment 5, 10 mg/kg i.p.): 80%
Plaque Assay, PFC relative to control (100%) ([2]; Experiment 5): 58%
Plaque Assay, PFC per 10^6 spleen cells ([2]; Experiment 5): 245 ± 90 PFC per 10^6 spleen cells
Immunomodulating activity (in words) [2]: immunosuppressors
% Chromium Release ± SD, Effector:Target Ratio 25:1 (YAC-1 tumor cells): 9.8 ± 3.6%
% Chromium Release ± SD, Effector:Target Ratio 50:1 (YAC-1 tumor cells): 14.3 ± 1.9%
Effect on natural killer (NK) cell activity (in words) (YAC-1 tumor cells; 50 mg/kg, splenocytes 24 hours after final treatment, Hydrochloride): marginally suppressive; also recorded: marginal natural killer cell suppression
Mean CPM of Treated Thymocytes ± SD [4]: 5491 ± 1269 CPM
Effect on macrophage function (in words) [4]: somewhat stimulatory; also recorded: macrophage stimulation

Nc1nc(O)c2ncn(COC(CO)CO)c2n1 [Ganciclovir, reference compound]
Survivors (%) [5, 8]: 100%
Survivors/total [5, 8]: 10/10
Mean day to death ([5]; 25 mg/kg i.p. once daily for 5 days, of mice that died on or before day 21): > 21 days
Survivors (%) [6]: 100%
Survivors/total [6]: 5/5
Virus titer in Liver ([7]; Day 3): 2.6±0.2 Log10 CCID50/qram
Virus titer in Lung ([7]; Day 3): < 2.5±0.0 Log10 CCID50/qram
Virus titer in salivary gland ([7]; Day 3): 3.1±0.6 Log10 CCID50/qram
Virus titer in spleen ([7]; Day 3): 5.7±0.3 Log10 CCID50/qram
Virus titer in Liver ([7]; Day 6): 3.3±0.8 Log10 CCID50/qram
Virus titer in Lung ([7]; Day 6): 3.5±0.6 Log10 CCID50/qram
Virus titer in salivary gland ([7]; Day 6): 3.3±0.8 Log10 CCID50/qram
Virus titer in spleen ([7]; Day 6): 3.6±0.9 Log10 CCID50/qram
